Laboratory results reported in ChEMBL document CHEMBL3774385, “Small molecule glycoconjugates with anticancer activity” (Eur J Med Chem, 2016).
Calls of active or inactive are those of the source. No cut-off for these calls is given here.

Assays:
[1] = Antiproliferative activity against p53 deficient human HCT116 cells after 96 hrs by MTS assay; type: functional, cell-based; settings: HCT-116, 96 h
[2] = Antiproliferative activity against p53 expressing human HCT116 cells after 96 hrs by MTS assay; type: functional, cell-based; settings: HCT-116, 96 h
Calf thymus DNA = assay: Binding affinity to calf thymus DNA assessed as hypochromism at 3 to 25 uM after 1.5 hrs by UV-visible spectrophotometry; type: nucleic-acid assay; settings: Bos taurus
HCT-116 [3] = assay: Antiproliferative activity against p53 expressing human HCT116 cells at IC50 after 3 to 96 hrs by MTS assay in presence of 10 to 50 uM glucose; type: functional, cell-based
HCT-116 [4] = assay: Induction of apoptosis in p53 expressing human HCT116 cells assessed as early apoptotic cells at IC50 after 48 hrs by acridine orange/ethidium bromide staining-based epifluorescence microscopy; type: functional, cell-based
HCT-116 [5] = assay: Induction of reactive oxygen species generation in p53 expressing human HCT116 cells at 2 times IC50 for 24 hrs by inverted fluorescent microscopy; type: functional, cell-based
NHDF = assay: Cytotoxicity against human NHDF cells after 96 hrs by MTS assay; type: cell-based
[6] = Binding affinity to Cu2+ assessed as compound-metal complex formation at compound to metal ratio of 1:0, 1:1, 2:1, 3:1, 4:1 and 5:1 after 30 mins by UV-visible spectrophotometry
[7] = Binding affinity to Zn2+ assessed as compound-metal complex formation at compound to metal ratio of 1:0, 1:1, 2:1, 3:1, 4:1 and 5:1 after 30 mins by UV-visible spectrophotometry
HCT-116 [8] = assay: Induction of apoptosis in p53 expressing human HCT116 cells assessed as caspase-3/7 activation at IC50 after 30 to 48 hrs by luminescence assay; type: functional, cell-based
HCT-116 [9] = assay: Induction of apoptosis in p53 expressing human HCT116 cells assessed as late apoptotic cells at IC50 after 48 hrs by acridine orange/ethidium bromide staining-based epifluorescence microscopy; type: functional, cell-based
HCT-116 [10] = assay: Induction of apoptosis in p53 deficient human HCT116 cells assessed as caspase-3/7 activation at IC50 after 30 to 48 hrs by luminescence assay; type: functional, cell-based
HCT-116 [11] = assay: Antiproliferative activity against p53 deficient human HCT116 cells at IC50 after 96 hrs by MTS assay in presence of 50 uM ZnCl2; type: functional, cell-based
[12] = Antiproliferative activity against p53 deficient human HCT116 cells at IC50 after 96 hrs by MTS assay in presence of 20 uM CuCl2; type: functional, HCT-116
HCT-116 [13] = assay: Induction of intracellular reactive oxygen species generation in p53 expressing human HCT116 cells at IC50 after 12 hrs by fluorescence-based plate reader analysis; type: functional, cell-based
HCT-116 [14] = assay: Decrease in GSH level in p53 expressing human HCT116 cells at IC50 after 12 hrs by luminescence analysis; type: functional, cell-based
HCT-116 [15] = assay: Antiproliferative activity against p53 expressing human HCT116 cells at IC50 after 96 hrs by MTS assay in presence of 50 uM of ZnCl2; type: functional, cell-based
[16] = Antiproliferative activity against p53 expressing human HCT116 cells at IC50 after 96 hrs by MTS assay in presence of 20 uM CuCl2; type: functional, HCT-116
HCT-116 [17] = assay: Induction of intracellular reactive oxygen species generation in p53 expressing human HCT116 cells at IC50 after 6 hrs by fluorescence-based plate reader analysis; type: functional, cell-based

For `CC(=O)OC[C@H]1O[C@@H](SC(=O)c2ccc3ccc(C)nc3c2O)[C@H](OC(C)=O)[C@@H](OC(C)=O)[C@H]1OC(C)=O`, the IC50 [1] was greater than 25 µM and the IC50 [2] was greater than 25 µM.
Compound `CC(=O)OC[C@H]1O[C@@H](N)[C@H](OC(C)=O)[C@@H](OC(C)=O)[C@@H]1OC(C)=O` has an IC50 [1] greater than 300 µM and an IC50 [2] greater than 450 µM.
In the case of `CC(=O)OC[C@H]1O[C@@H](Sc2ccc(NC(=O)c3ccc4ccc(C)nc4c3O)cc2)[C@H](OC(C)=O)[C@@H](OC(C)=O)[C@H]1OC(C)=O`, the Activity (Calf thymus DNA) is reported as 17.2%, the Activity (HCT-116 [3]) is reported as “inactive” and the IC50 [1] is reported as 8.94 µM. The Activity (HCT-116 [4]) was “Active”, the Activity (HCT-116 [5]) was “Active” and the IC50 (NHDF) was 13.3 µM. For the same compound, the IC50 [2] was 12.6 µM, the Activity [6] was “Active” and the Activity [7] was “Active”. For the same compound, the Activity (HCT-116 [8]) was “Active” and the Activity (HCT-116 [9]) was “Active”.
`CC(=O)OC[C@H]1O[C@@H](Sc2ccc(N)cn2)[C@H](OC(C)=O)[C@@H](OC(C)=O)[C@@H]1OC(C)=O` gave an IC50 [1] greater than 150 µM and an IC50 [2] greater than 150 µM.
With `CC(=O)OC[C@H]1O[C@@H](Sc2ccc(NC(=O)c3ccc4nc(C)ccc4c3O)cc2)[C@H](OC(C)=O)[C@@H](OC(C)=O)[C@@H]1OC(C)=O` the IC50 [1] was greater than 25 µM and the IC50 [2] was greater than 25 µM.
For `CC(=O)OC[C@H]1O[C@@H](Sc2ccc(N)cc2)[C@H](OC(C)=O)[C@@H](OC(C)=O)[C@H]1OC(C)=O`, the IC50 [1] was greater than 150 µM and the IC50 [2] was greater than 150 µM.
`Cc1ccc2c(O)c(C(=O)O)ccc2n1` gave an IC50 [1] greater than 750 µM and an IC50 [2] greater than 750 µM.
`CC(=O)OC[C@H]1O[C@@H](SC(=O)c2ccc3nc(C)ccc3c2O)[C@H](OC(C)=O)[C@@H](OC(C)=O)[C@H]1OC(C)=O` showed an IC50 [1] greater than 25 µM and an IC50 [2] greater than 25 µM.
With `CC(=O)OC[C@H]1O[C@@H](Sc2ccc(N)cn2)[C@H](OC(C)=O)[C@@H](OC(C)=O)[C@H]1OC(C)=O` the IC50 [1] was greater than 150 µM and the IC50 [2] was greater than 150 µM.
Compound `CC(=O)OC[C@H]1O[C@@H](Sc2ccc(N)cc2)[C@H](OC(C)=O)[C@@H](OC(C)=O)[C@@H]1OC(C)=O` has an IC50 [1] greater than 150 µM and an IC50 [2] greater than 150 µM.
With `CC(=O)OC[C@H]1O[C@@H](Sc2ccc(NC(=O)c3ccc4ccc(C)nc4c3O)cn2)[C@H](OC(C)=O)[C@@H](OC(C)=O)[C@H]1OC(C)=O` the Activity (Calf thymus DNA) was 26.1%, the Activity (HCT-116 [3]) was “inactive” and the IC50 [1] was 7.05 µM. For the same compound, the Activity (HCT-116 [4]) was “Active”, the Activity (HCT-116 [5]) was “Active” and the IC50 (NHDF) was 9.32 µM. For the same compound, the IC50 [2] was 7.86 µM, the Activity [6] was “Active” and the Activity (HCT-116 [10]) was “inactive”. For the same compound, the Activity [7] was “Active”, the Activity (HCT-116 [8]) was “inactive” and the Activity (HCT-116 [9]) was “Active”.
In the case of `CC(=O)OC[C@H]1O[C@@H](Sc2ccc(NC(=O)c3ccc4ccc(C)nc4c3O)cn2)[C@H](OC(C)=O)[C@@H](OC(C)=O)[C@@H]1OC(C)=O`, the Activity (HCT-116 [11]) is reported as “inactive”, the Activity [12] is reported as 75% and the Activity (Calf thymus DNA) is reported as 41.5%. For the same compound, the Activity (HCT-116 [3]) was “inactive”, the IC50 [1] was 4.42 µM and the Activity (HCT-116 [4]) was “Active”. The Activity (HCT-116 [5]) was “Active”, the IC50 (NHDF) was 11.5 µM and the IC50 [2] was 4.88 µM. The Activity [6] was “Active”, the Activity (HCT-116 [10]) was “inactive” and the Activity (HCT-116 [13]) was “Active”. For the same compound, the Activity (HCT-116 [14]) was “Active”, the Activity [7] was “Active” and the Activity (HCT-116 [8]) was “inactive”. For the same compound, the Activity (HCT-116 [9]) was “Active”.
In the case of `CC(=O)OC[C@H]1O[C@@H](NC(=O)c2ccc3ccc(C)nc3c2O)[C@H](OC(C)=O)[C@@H](OC(C)=O)[C@@H]1OC(C)=O`, the Activity (Calf thymus DNA) is reported as 16.2%, the IC50 [1] is reported as 15.1 µM and the Activity (HCT-116 [4]) is reported as “Active”. For the same compound, the Activity (HCT-116 [5]) was “Active”, the Activity (HCT-116 [15]) was “inactive” and the IC50 (NHDF) was 23.6 µM. The IC50 [2] was 13.6 µM, the Activity [6] was “Active” and the Activity [16] was 50%. For the same compound, the Activity (HCT-116 [17]) was “Active”, the Activity (HCT-116 [14]) was “Active” and the Activity [7] was “Active”. The Activity (HCT-116 [8]) was “Active” and the Activity (HCT-116 [9]) was “Active”.
In the case of `Cc1ccc2ccc(C(=O)N[C@@H]3O[C@H](COCc4ccccc4)[C@H](OCc4ccccc4)[C@H](OCc4ccccc4)[C@H]3OCc3ccccc3)c(O)c2n1`, the Activity (Calf thymus DNA) is reported as 9%, the Activity (HCT-116 [3]) is reported as “inactive” and the IC50 [1] is reported as 11.7 µM. For the same compound, the Activity (HCT-116 [4]) was “Active”, the Activity (HCT-116 [5]) was “Active” and the IC50 (NHDF) was 18.6 µM. For the same compound, the IC50 [2] was 11.6 µM, the Activity [6] was “Active” and the Activity (HCT-116 [10]) was “Active”. The Activity (HCT-116 [13]) was “Active”, the Activity (HCT-116 [14]) was “Active” and the Activity [7] was “Active”. The Activity (HCT-116 [8]) was “Active” and the Activity (HCT-116 [9]) was “Active”.
Work on `CC(=O)OC[C@H]1O[C@@H](SC(=O)c2ccc3nc(C)ccc3c2O)[C@H](OC(C)=O)[C@@H](OC(C)=O)[C@@H]1OC(C)=O` yielded an IC50 [1] greater than 25 µM and an IC50 [2] greater than 25 µM.
In the case of `CC(=O)OC[C@H]1O[C@@H](S)[C@H](OC(C)=O)[C@@H](OC(C)=O)[C@@H]1OC(C)=O`, the IC50 [1] is reported as greater than 500 µM and the IC50 [2] is reported as greater than 750 µM.
Compound `Cc1ccc2ccc(C(=O)O)c(O)c2n1` has an IC50 [1] greater than 750 µM and an IC50 [2] greater than 750 µM.
`CC(=O)OC[C@H]1O[C@@H](SC(=O)c2ccc3ccc(C)nc3c2O)[C@H](OC(C)=O)[C@@H](OC(C)=O)[C@@H]1OC(C)=O` gave an IC50 [1] greater than 25 µM and an IC50 [2] greater than 25 µM.
For `CC(=O)OC[C@H]1O[C@@H](Sc2ccc(NC(=O)c3ccc4ccc(C)nc4c3O)cc2)[C@H](OC(C)=O)[C@@H](OC(C)=O)[C@@H]1OC(C)=O`, the Activity (Calf thymus DNA) was 10.7%, the IC50 [1] was 10.7 µM and the Activity (HCT-116 [4]) was “Active”. The Activity (HCT-116 [5]) was “Active”, the IC50 (NHDF) was 12.4 µM and the IC50 [2] was 12 µM. For the same compound, the Activity [6] was “Active”, the Activity (HCT-116 [10]) was “inactive” and the Activity [7] was “Active”. For the same compound, the Activity (HCT-116 [8]) was “inactive” and the Activity (HCT-116 [9]) was “Active”.
Compound `COc1cccc2c1C(=O)c1c(O)c3c(c(O)c1C2=O)C[C@@](O)(C(=O)CO)C[C@@H]3O[C@H]1C[C@H](N)[C@H](O)[C@H](C)O1` [DOXORUBICIN] has an IC50 [1] of 0.38 µM, an IC50 (NHDF) of 3.38 µM and an IC50 [2] of 0.34 µM.
With `Cc1ccc2ccc(C(=O)N[C@@H]3O[C@H](CO)[C@@H](O)[C@H](O)[C@H]3O)c(O)c2n1` the IC50 [1] was greater than 750 µM and the IC50 [2] was greater than 750 µM.
